Reference: patent publication US20190202836A1, “SELECTIVE DUAL INHIBITORS OF PI3 DELTA AND GAMMA PROTEIN KINASES” (Rhizen Pharmaceuticals SA, priority 2014, published 2019)

How the values were obtained:
[1] = Oral pharmacokinetics in rats; format: in vivo; conditions: Rat, 10 mg/kg
Procedure: The oral bioavailability of Compound A1 (free base) was evaluated in rats and mice. The protocol for the pharmacokinetics studies in rat is provided below.
All animals were fasted overnight (12 hours) before dosing and continued till 4.0 hours after administration of test item. Test item formulations were prepared in 1% Tween 80 and 99% media (0.5% Methyl cellulose, 4000cPs, pH 2.2). The blood samples (150 μL from each animal) were collected from the orbital sinus, and placed into a micro centrifuge tube containing disodium EDTA as an anticoagulant. Blood samples were centrifuged immediately with a speed of 1000 g for 10 min at 4° C. and separated plasma samples were frozen at below −80° C. and stored until analysis. The concentrations of test item in all formulations were analyzed by HPLC. The plasma concentrations of test item in all samples were analyzed by LC-MS/MS. Pharmacokinetic parameters (Cmax, AUC0-t, Tmax, and t^1/2) were estimated by using WinNonlin software. Results are provided in Table 3 for Compound A, A1, and Example 128 of WO 2012/151525 in rats and Compound A1 in mice.

[2] = Plasma protein binding (equilibrium dialysis), rat; format: in vitro ADME; conditions: pH 7.4, 37° C.
Procedure: Below is provided the procedure for measuring plasma protein binding (using an equilibrium dialysis method). 745 μL of plasma was transferred into a 2 ml micro centrifuge tube. To that 5 μL of Compound A1 (150 μM) was added. Samples were mixed in the table top vortexer for 2 minutes. 50 μL plasma (n=2) was transferred in a pre-labeled 1.5 mL micro centrifuge tube treated as 0 hour sample.
The remaining 650 μL plasma sample were incubated for 30 minutes at 37° C. in a water bath. After 30 minute incubation, 50 μL plasma (n=2) was removed in a pre-labelled 1.5 mL micro centrifuge tube treated as 0.5 hour sample. 200 μL of the plasma sample (n=2) was transferred into the sample chamber which was indicated by the red ring. The red insert was placed into the base plate and 350 μL of buffer was transferred into the buffer chamber. Plates were incubated at 37° C. at approximately 100 RPM on an orbital shaker or 20 RPM on an up-and-down shaker for 4 hours. 50 μL of post dialysis-sample from the buffer and the plasma chambers were transferred into a pre-labelled micro centrifuged tube. 50 μL of plasma was added to the buffer samples and an equal volume of buffer (KH2PO4 Buffer pH 7.4) to the collected plasma samples. 150 μL of methanol containing internal standard (Tolbutamide 250 ng/ml) was added to precipitate the protein and release compound. […]

Female Wistar rats = assay: Assay 11: Collagen induced arthritis (CIA) in Wistar rats; format: in vivo; conditions: rat CIA, dosed therapeutically, 10 mg/kg/QD
TNFα = assay: Assay 6A: Cytokine assay in human PBMC, LPS induced TNFα; format: cell-based; conditions: LPS 1 μg/ml, 6 hours, 2-3 independent experiments, read-out: EC50, antigen-induced TNFα
Procedure: The objective of this study was to assess the inhibitory potential of Compound A1 on antigen-induced cytokine release in human PBMC
• Heparinized human whole blood was diluted 1:1 with PBS, over laid on leukocyte separation medium and centrifuged at 400 g for 40 minutes. • Buffy layer was removed and washed with PBS • 0.15*10^6 of PBMCs were plated in 100 μl per well in RPMI media and incubated for 2 h. • 50 μl of 3× of the compound dilution in media was added and incubated for 15 min. • TNFα—induced with 50 μl of LPS in RPMI such that final concentration was 1 μg/ml. Supernatant was collected at 6 hours. • IL-2-induced with 50 μl of PHA in RPMI such that final concentration was 20 μg/ml. Supernatant was collected at 24 hours. • IL-4-induced with 50 μl of PHA in RPMI such that final concentration was 20 μg/ml.
EC50 values were calculated from 2-3 independent experiments.

[3] = Metabolic stability in rat liver microsomes; format: in vitro ADME; conditions: 1 μM test item, 60 minutes, 37° C., NADPH
Procedure: Metabolic stability studies were conducted on Compounds A, A1, and A2 as well as Example 128 of WO 2012/151525 using mouse, rat, dog, monkey, and human liver microsomes. The protocol for the studies with mouse, rat, and human liver microsomes (all from BD Gentest, USA) is provided below. 0.4 mg protein was preincubated with 2 mM NADPH (cofactor) in phosphate buffer (pH-7.4) for 15 minutes at 37° C. and then added with 1 μM test item and incubated further for 60 minutes in triplicate. The reaction mixture was terminated with methanol containing an internal standard and centrifuged further to analyze the test item remaining in the supernatant by LC-MS/MS. The percent parent compound remaining was calculated in comparison with similar samples terminated at 0 minutes.

[4] = Oral pharmacokinetics in mice; format: in vivo; conditions: mouse, plasma, 10 mg/kg
PI3K delta = target: T1, PI3K delta (Homo sapiens, UniProt O00329); assay: Assay 4A1: Anti-IgM induced B-cell proliferation; format: cell-based; conditions: isolated human B-cells, 72 hours; read-out: Cellular IC50 PI3K delta (anti-IgM induced human B-cell proliferation)
T1 construct: endogenous in cells; host or cells: isolated human B-cells
T1 sequence (O00329 whole entry): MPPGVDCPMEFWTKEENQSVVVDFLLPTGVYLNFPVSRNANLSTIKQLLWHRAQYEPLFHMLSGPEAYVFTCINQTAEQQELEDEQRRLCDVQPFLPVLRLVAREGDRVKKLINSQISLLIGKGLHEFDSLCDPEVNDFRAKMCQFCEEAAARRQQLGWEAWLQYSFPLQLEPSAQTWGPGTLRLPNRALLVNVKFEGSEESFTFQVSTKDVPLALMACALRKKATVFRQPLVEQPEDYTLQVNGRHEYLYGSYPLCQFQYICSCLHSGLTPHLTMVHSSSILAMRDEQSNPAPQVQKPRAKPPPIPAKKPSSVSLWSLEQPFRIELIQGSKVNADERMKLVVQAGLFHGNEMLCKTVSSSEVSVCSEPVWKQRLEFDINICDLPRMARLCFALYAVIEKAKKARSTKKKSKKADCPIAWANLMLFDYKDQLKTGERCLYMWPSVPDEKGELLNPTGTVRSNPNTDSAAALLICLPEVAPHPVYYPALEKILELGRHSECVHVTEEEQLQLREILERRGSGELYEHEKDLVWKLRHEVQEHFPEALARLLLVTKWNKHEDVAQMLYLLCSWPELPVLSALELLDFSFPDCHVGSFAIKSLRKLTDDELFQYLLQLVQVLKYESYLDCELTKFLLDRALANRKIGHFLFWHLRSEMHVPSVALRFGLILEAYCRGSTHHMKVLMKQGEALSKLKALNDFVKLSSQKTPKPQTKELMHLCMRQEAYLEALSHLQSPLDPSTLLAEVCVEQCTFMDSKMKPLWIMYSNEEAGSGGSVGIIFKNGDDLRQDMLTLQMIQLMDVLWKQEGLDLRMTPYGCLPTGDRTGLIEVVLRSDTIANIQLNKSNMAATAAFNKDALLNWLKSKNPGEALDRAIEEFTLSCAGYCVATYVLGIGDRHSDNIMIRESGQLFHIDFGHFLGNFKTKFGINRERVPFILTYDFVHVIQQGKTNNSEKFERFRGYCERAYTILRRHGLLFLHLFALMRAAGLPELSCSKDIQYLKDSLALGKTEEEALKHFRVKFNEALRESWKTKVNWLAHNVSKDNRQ
T1 sequence (P27986 whole entry partner): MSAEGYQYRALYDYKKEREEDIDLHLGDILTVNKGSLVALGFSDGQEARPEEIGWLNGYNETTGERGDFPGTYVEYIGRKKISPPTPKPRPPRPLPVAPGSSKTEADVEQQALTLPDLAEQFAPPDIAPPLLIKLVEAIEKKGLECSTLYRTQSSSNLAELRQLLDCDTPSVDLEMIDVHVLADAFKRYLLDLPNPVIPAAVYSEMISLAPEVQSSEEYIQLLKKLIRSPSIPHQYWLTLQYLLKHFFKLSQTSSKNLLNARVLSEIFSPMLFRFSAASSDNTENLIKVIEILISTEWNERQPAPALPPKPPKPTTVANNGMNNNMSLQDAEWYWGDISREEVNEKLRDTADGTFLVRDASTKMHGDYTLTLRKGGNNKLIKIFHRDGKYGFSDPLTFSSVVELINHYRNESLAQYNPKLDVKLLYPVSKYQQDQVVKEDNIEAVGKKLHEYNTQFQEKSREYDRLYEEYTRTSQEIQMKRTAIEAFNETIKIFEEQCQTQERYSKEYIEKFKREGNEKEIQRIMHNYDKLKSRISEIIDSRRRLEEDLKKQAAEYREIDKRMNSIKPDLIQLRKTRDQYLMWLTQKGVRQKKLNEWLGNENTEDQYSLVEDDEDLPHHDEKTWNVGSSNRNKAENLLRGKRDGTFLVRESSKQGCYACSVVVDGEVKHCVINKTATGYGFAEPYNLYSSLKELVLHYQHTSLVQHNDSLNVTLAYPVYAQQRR
Procedure: The objective of this study was to assess the inhibitory potential of Compound A1 on anti-IgM induced human B-cell proliferation.
Isolated B-cells were re-suspended to 1.0×10^6 cells per ml. 100 μl of cell suspension was added to each well of a 96-well plate. Triplicates were maintained.
50 μl of drug dilution was added and mixed well. A DMSO blank and inducer blank were maintained.
The treated plate was incubated for 30 minutes at 37° C., 5% CO2 and then 50 μl of 4× inducer was added and mixed by pipetting.
The plate was incubated at 37° C., 5% CO2 for 72 hours.
Media was aspirated and 150 μl of DMSO was added to dissolve the formazan crystals.
Absorbance was read at A560 and A640 nm.

Compound: COc1ccc(-c2nn([C@@H](C)c3oc4cccc(F)c4c(=O)c3-c3cccc(F)c3)c3ncnc(N)c23)cc1NS(C)(=O)=O [Compound A1, (S)—N-(5-(4-amino-1-(1-(5-fluoro-3-(3-fluorophenyl)-4-oxo-4H-chromen-2-yl)ethyl)-1H-pyrazolo[3,4-d]pyrimidin-3-yl)-2-methoxyphenyl)methanesulfonamide]
- fold increase in AUC0-t as compared to Example 128 of WO 2012/151525 [1]: 48 fold
- fold increase in Cmax as compared to Example 128 of WO 2012/151525 [1]: ~16 fold
- fold increase in t1/2 as compared to Example 128 of WO 2012/151525 [1]: ~1.6 fold
- AUC(0-t) ([1]; plasma): 97.8 µM·h
- Cmax ([1]; plasma): 11.4 µM
- Tmax ([1]; plasma): 1.83 h
- half-life ([1]; plasma): 147 min
- fraction unbound at 4 h, 1 μM [2]: 0.0096
- inhibition of cartilage (histopathology of all the hind and fore paws) (Female Wistar rats): 46.51%
- inhibition of inflammation (histopathology of all the hind and fore paws) (Female Wistar rats): 58.3%
- inhibition of pannus (histopathology of all the hind and fore paws) (Female Wistar rats): 49.18%
- reducing ankle diameter (Female Wistar rats): significant efficacy
- reducing the average paw volumes of both the hind paws (Female Wistar rats): significant efficacy
- reduction of the clinical score (Female Wistar rats; prophylactic and therapeutic paws): significant efficacy
- EC50 (TNFα): 7.1 nM
- Metabolic stability in liver microsomes (percent parent compound remaining), Rat [3]: 94.2%
- AUC(0-t) [4]: 7.49 µM·h
- Cmax [4]: 3.78 µM
- Tmax [4]: 30 min
- half-life [4]: 87 min
- IC50 (PI3K delta): 11 nM
